# Reference: patent US11306078B2, “Piperidine CXCR7 receptor modulators” (IDORSIA PHARMACEUTICALS LTD., priority 2016, dated 2022)
# Target: human chemokine receptor CXCR7 (Homo sapiens (Human), UniProt P25106)
# Test: Tango CXCR7-bla U2OS beta-arrestin recruitment assay (beta-lactamase reporter, FRET), antagonism of CXCL12/SDF1-α;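 also: compounds preincubated 15 min before CXCL12 addition, then 22 h at 37 °C, FRET emission ratio read with CCF4-AM substrate after 2 h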
# Assay type: cell-based
# Settings: antagonistic effect on CXCR7; Tango CXCR7-bla U2OS cells, CXCL12/SDF1-α at its EC80
# Chain of human chemokine receptor CXCR7 (P25106 whole entry): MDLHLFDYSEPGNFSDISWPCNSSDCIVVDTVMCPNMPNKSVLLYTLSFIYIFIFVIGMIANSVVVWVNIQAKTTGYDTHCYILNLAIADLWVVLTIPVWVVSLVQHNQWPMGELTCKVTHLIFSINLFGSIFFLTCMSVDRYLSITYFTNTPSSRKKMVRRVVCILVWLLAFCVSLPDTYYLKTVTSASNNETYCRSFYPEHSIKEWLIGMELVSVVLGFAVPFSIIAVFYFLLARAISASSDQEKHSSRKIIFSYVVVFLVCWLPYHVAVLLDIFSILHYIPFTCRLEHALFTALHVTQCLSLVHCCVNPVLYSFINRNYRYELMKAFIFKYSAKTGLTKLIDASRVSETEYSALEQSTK
row,SMILES,IC50 [nM]
1,CN(C)C(=O)[C@@H]1CN(CC2CCC2)CC[C@H]1NC(=O)c1cc(-c2ccc(F)cc2F)on1 [Example 2.038],99
2,CN(C)C(=O)[C@@H]1CN(CCC2CC2)CC[C@H]1NC(=O)c1cc(-c2ccc(F)cc2F)on1 [Example 2.039],83
3,CC(C1CC1)N1CC[C@@H](NC(=O)c2cc(-c3ccc(F)cc3F)on2)[C@H](C(=O)N(C)C)C1 (stereo partly shown) [Example 2.046],16
4,C[C@H]([C@@H](C)O)N1CC[C@@H](NC(=O)c2cc(-c3ccc(F)cc3F)on2)[C@H](C(=O)N(C)C)C1 [Example 2.049],709
5,C[C@H]([C@@H](C)O)N1CC[C@@H](NC(=O)c2cc(-c3ccc(F)cc3F)on2)[C@H](C(=O)N(C)CCc2ccccc2)C1 [Example 2.051],42
6,C[C@@H](NC(=O)[C@@H]1CN([C@@H]2CCCC[C@H]2O)CC[C@H]1NC(=O)c1cc(-c2ccc(F)cc2F)on1)c1ccccn1 [Example 2.053],26
7,C[C@H]([C@@H](C)O)N1CC[C@@H](NC(=O)c2cc(-c3ccc(F)cc3F)on2)[C@H](C(=O)N[C@H](C)c2ccccn2)C1 [Example 2.054],138
8,O=C(N[C@H]1CCN(CC2CC2)C[C@@H]1C(=O)NC1(c2cccc[n+]2[O-])CC1)c1cc(-c2ccc(F)cc2F)on1 [Example 2.061],41
9,O=C(N[C@H]1CCN(C2CCCC2)C[C@@H]1C(=O)NC1(c2cccc[n+]2[O-])CC1)c1cc(-c2ccc(F)cc2F)on1 [Example 2.062b],14
10,N#CC1(NC(=O)[C@@H]2CN(C3CCCC3)CC[C@H]2NC(=O)c2cc(-c3ccc(F)cc3F)on2)CCC1 [Example 2.064],84
11,O=C(N[C@H]1CCN(CC2CCCC2)C[C@@H]1C(=O)NC1(c2ncccn2)CC1)c1cc(-c2ccc(F)cc2F)on1 [Example 2.065],1
12,O=C(N[C@H]1CCN(Cc2ccccc2)C[C@@H]1C(=O)NC1(c2ncccn2)CC1)c1cc(-c2ccc(F)cc2F)on1 [Example 2.071],8
13,CN(CCc1ccccn1)C(=O)[C@@H]1CN(C2CCCC2)CC[C@H]1NC(=O)c1cc(-c2ccc(F)cc2F)on1 [Example 2.078],72
14,CN(C)C(=O)[C@@H]1CN(Cc2ccccc2Cl)CC[C@H]1NC(=O)c1cc(-c2ccc(F)cc2F)on1 [Example 2.082],342
15,CN(C)C(=O)[C@@H]1CN(Cc2ccccc2F)CC[C@H]1NC(=O)c1cc(-c2ccc(F)cc2F)on1 [Example 2.083],777
16,CN(C)C(=O)[C@@H]1CN(Cc2ccn(C)c2)CC[C@H]1NC(=O)c1cc(-c2ccc(F)cc2F)on1 [Example 2.085],179
17,O=C(N[C@H]1CCN(CC2CC2)C[C@@H]1C(=O)NC1(c2ccccn2)CC1)c1cn(-c2ccc(F)cc2F)nn1 [Example 2.091],62
18,O=C(N[C@H]1CCNC[C@@H]1C(=O)NC1(c2ncccn2)CC1)c1ncc(-c2ccc(F)cc2F)o1 [Example 2.096],634
19,O=C(N[C@H]1CCN(CC2CC(F)(F)C2)C[C@@H]1C(=O)NC1(c2ncccn2)CC1)c1cc(-c2ccc(F)cc2F)on1 [Example 2.101],29
20,O=C(N[C@H]1CCN(C2CSC2)C[C@@H]1C(=O)NC1(c2ncccn2)CC1)c1cc(-c2ccc(F)cc2F)on1 [Example 2.102],411
21,O=C(N[C@H]1CCNC[C@@H]1C(=O)NC1(c2ncccn2)CC1)c1nnc(-c2ccc(F)cc2F)s1 [Example 2.104],195

# The next lines start with the values.
row,IC50 [nM],SMILES
1,165,CN(C)C(=O)[C@@H]1CN(CC2=CCCC2)CC[C@H]1NC(=O)c1cc(-c2ccc(F)cc2F)on1 [Example 2.036]
2,161,CN(C)C(=O)[C@@H]1CN([C@@H]2C[C@@H]3CC[C@@H]2C3)CC[C@H]1NC(=O)c1cc(-c2ccc(F)cc2F)on1 [Example 2.037]
3,114,CN(C)C(=O)[C@@H]1CN(CC2CC2)CC[C@H]1NC(=O)c1cc(-c2ccc(F)cc2F)on1 [Example 2.045]
4,145,CN(C)C(=O)[C@@H]1CN(C2CCCC23CC3)CC[C@H]1NC(=O)c1cc(-c2ccc(F)cc2F)on1 (stereo partly shown) [Example 2.047]
5,501,CN(C)C(=O)[C@@H]1CN([C@@H]2CCCC[C@H]2O)CC[C@H]1NC(=O)c1cc(-c2ccc(F)cc2F)on1 [Example 2.048]
6,267,CN(CCc1ccccc1)C(=O)[C@@H]1CN(CCO)CC[C@H]1NC(=O)c1cc(-c2ccc(F)cc2F)on1 [Example 2.052]
7,347,CN(CCc1ccccc1)C(=O)[C@@H]1CNCC[C@H]1NC(=O)c1cc(-c2ccc(F)cc2F)on1 [Example 2.058]
8,23,O=C(NC1CCN(C2CCCC2)CC1C(=O)NC1(c2cccc[n+]2[O-])CC1)c1cc(-c2ccc(F)cc2F)on1 (stereo not shown) [Example 2.062]
9,298,O=C(N[C@@H]1CCN(C2CCCC2)C[C@H]1C(=O)NC1(c2cccc[n+]2[O-])CC1)c1cc(-c2ccc(F)cc2F)on1 [Example 2.062a]
10,219,O=C(N[C@H]1CCN(C2CCC2)C[C@@H]1C(=O)NC1(c2cccc[n+]2[O-])CC1)c1cc(-c2ccc(F)cc2F)on1 [Example 2.063]
11,18,O=C(N[C@H]1CCN(CC2(C(F)F)CC2)C[C@@H]1C(=O)NC1(c2ncccn2)CC1)c1cc(-c2ccc(F)cc2F)on1 [Example 2.067]
12,12,O=C(N[C@H]1CCN(Cc2ccc(F)cc2)C[C@@H]1C(=O)NC1(c2ncccn2)CC1)c1cc(-c2ccc(F)cc2F)on1 [Example 2.068]
13,6,CC(C)(C)CN1CC[C@H](NC(=O)c2cc(-c3ccc(F)cc3F)on2)[C@@H](C(=O)NC2(c3ncccn3)CC2)C1 [Example 2.069]
14,71,CCN(C)C(=O)[C@@H]1CN(C2CCCC2)CC[C@H]1NC(=O)c1cc(-c2ccc(F)cc2F)on1 [Example 2.076]
15,112,CCN(C)C(=O)[C@@H]1CN(CC2CC2)CC[C@H]1NC(=O)c1cc(-c2ccc(F)cc2F)on1 [Example 2.077]
16,38,CN(CCc1ccccn1)C(=O)[C@@H]1CN(CC2CC2)CC[C@H]1NC(=O)c1cc(-c2ccc(F)cc2F)on1 [Example 2.079]
17,118,CN(C)C(=O)[C@@H]1CN(Cc2ccccc2)CC[C@H]1NC(=O)c1cc(-c2ccc(F)cc2F)on1 [Example 2.081]
18,8,O=C(N[C@H]1CCN(CC2CC2(F)F)C[C@@H]1C(=O)NC1(c2ncccn2)CC1)c1cc(-c2ccc(F)cc2F)on1 (stereo partly shown) [Example 2.084]
19,95,O=C(N[C@H]1CCN(C2CCCC2)C[C@@H]1C(=O)NC1(c2ccccn2)CC1)c1cn(-c2ccc(F)cc2F)nn1 [Example 2.092]
20,26,C=CCN1CC[C@H](NC(=O)c2cc(-c3ccc(F)cc3F)on2)[C@@H](C(=O)NC2(c3ncccn3)CC2)C1 [Example 2.093]
21,2,O=C(N[C@H]1CCN(C2CC3CC3C2)C[C@@H]1C(=O)NC1(c2ncccn2)CC1)c1cc(-c2ccc(F)cc2F)on1 (stereo partly shown) [Example 2.094]
22,650,O=C(N[C@H]1CCN(C2CCC2)C[C@@H]1C(=O)NC1(c2ncccn2)CC1)c1ncc(-c2ccc(F)cc2F)o1 [Example 2.097]
23,94,O=C(N[C@H]1CCN(C2CCCC2)C[C@@H]1C(=O)NC1(c2ncccn2)CC1)c1ncc(-c2ccc(F)cc2F)o1 [Example 2.098]
24,343,CC(C)N1CC[C@H](NC(=O)c2ncc(-c3ccc(F)cc3F)o2)[C@@H](C(=O)NC2(c3ncccn3)CC2)C1 [Example 2.099]
25,4,O=C(N[C@H]1CCN(C2CC3(CC3)C2)C[C@@H]1C(=O)NC1(c2ncccn2)CC1)c1cc(-c2ccc(F)cc2F)on1 [Example 2.103]
